Test results reported in patent US20240246968A1, “SMALL MOLECULE INHIBITORS OF KRAS G12C MUTANT” (Merck Sharp & Dohme LLC, priority 2021, published 2024).

Assays:
[1] = target: Gppcp-bound recombinant K-Ras4B G12C mutant protein (amino acids 1-169, C51S/C80L/C118S) (Homo sapiens, UniProt P01116, C118S/C51S/C80L/G12C); test: KRASG12C binding assay (LC-MS, compound binding rate); settings: test compound final concentration 0.5 μM, 25° C., 1 hour
Procedure, shortened: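 Covalent adduct formation measured by deconvoluted intact-mass LC-MS after 1 h at 25 °C with compound at 0.5 μM final and 50 nM Gppcp-loaded KRAS G12C (residues 1-169, C51S/C80L/C118S). Buffer: TBS, 0.1 mM TCEP, 0.25 mM MgCl2, 50 μM Gppcp. Binding % = one-molecule adduct/(unbound + all adducts), binned A ≥80, B 60–80, C 40–60, D 20–40, E <20.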

[2] = target: T1, interaction between recombinant K-Ras4B G12C mutant protein and cRAF RAS-binding domain (cRAF-RBD) (Homo sapiens, UniProt P01116, G12C); test: Inhibitory activity on interaction between KRAS G12C and cRAF (Alpha technology); type: biochemical; settings: GMPPNP-bound KRAS G12C incubated with compound at 25° C. for 1 hour, then cRAF-RBD; Alpha signal
T1 construct: made in house; host or cells: E. coli
Procedure, shortened: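 Alpha readout of cRAF-RBD (aa 50-132) binding to KRAS G12C (aa 1-169) after 1.5 h RT, following 1 h, 25° C compound preincubation with GMPPNP-bound protein (pH 7.5 Tris, 1 mM MgCl2, TCEP, Tween 20). IC50 fitted from titrations, with GDP-bound KRAS as 100% and DMSO as 0% inhibition.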

MIA PaCa-2 cells = test: Growth inhibition activity on KRAS-G12C mutant cell line (MIA PaCa-2), CellTiter-Glo 3D; type: cell-based, human; settings: Homo sapiens, MIA PaCa-2, 72 h, MIA PaCa-2, 3-day culture with compound
Procedure, shortened: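 Luminescence readout (CellTiter-Glo 3D) after 3 days of compound treatment at 37 °C, 5% CO2, 0.2% final DMSO, gave % growth inhibition versus no-compound wells, from which IC50 (nM) was derived; cells had been plated in 10% FBS RPMI1640 one day before dosing.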

Structure (SMILES) | IC50 [2] | IC50 (MIA PaCa-2 cells) | binding rate [1]
Cc1nc2cc(-c3cccn4c(C(=O)c5cc(F)c(NC(=O)/C=C/CNC67CCC(F)(CC6)CC7)c(F)c5)ccc34)c(C(F)(F)F)cc2n1C [Example 85, (E)-N-(4-(8-(1,2-dimethyl-6-(trifluoromethyl)-1H-benzo[d]imidazol-5-yl)indolizine-3-carbonyl)-2,6-difluorophenyl)-4-((4-fluorobicyclo[2.2.2]octan-1-yl)amino)but-2-enamide] | 0.045 µM | 0.11 µM | A (A binding rate of 80% or more is rated “A”)
C=Cc1cc(C(=O)c2cc(F)c(NC(=O)/C=C/CN[C@H]3CC[C@H](OC)CC3)c(F)c2)n2cccc(-c3c(C)cc4c(nc(C)n4C)c3Cl)c12 [Example 88, (E)-N-(4-(8(4-chloro-1,2,6-trimethyl-1H-benzo[d]imidazol-5-yl)-1-vinylindolizine-3-carbonyl)-2,6-difluorophenyl)-4-(((1r,4r)-4-methoxycyclohexyl)amino)but-2-enamide] | 0.026 µM | 0.13 µM | A (A binding rate of 80% or more is rated “A”)
CCc1cc(C(=O)c2cc(F)c(NC(=O)/C=C/CN[C@H]3CC[C@H](OC)CC3)c(F)c2)n2cccc(-c3c(C)cc4c(nc(C)n4C)c3Cl)c12 [Example 89, (E)-N-(4-(8-(4-chloro-1,2,6-trimethyl-1H-benzo[d]imidazol-5-yl)-1-ethylindolizine-3-carbonyl)-2,6-difluorophenyl)-4-(((1r,4r)-4-methoxycyclohexyl)amino)but-2-enamide] | 0.022 µM | 0.1 µM | A (A binding rate of 80% or more is rated “A”)
Cc1nc2cc(-c3cccn4c(C(=O)c5cc(F)c(NC(=O)/C=C/CN[C@H]6CCOC6)c(F)c5)ccc34)c(C(F)(F)F)cc2n1C [Example 92] | 0.08 µM | 0.12 µM | A (A binding rate of 80% or more is rated “A”)
CO[C@H]1CC[C@H](NC/C=C/C(=O)Nc2c(F)cc(C(=O)c3cc(CO)c4c(-c5c(C)cc6c(nc(C)n6C)c5Cl)cccn34)cc2F)CC1 [Example 93] | 0.025 µM | 0.13 µM | A (A binding rate of 80% or more is rated “A”)
C/C=C/c1cc(C(=O)c2cc(F)c(NC(=O)/C=C/CN[C@H]3CC[C@H](OC)CC3)c(F)c2)n2cccc(-c3c(C)cc4c(nc(C)n4C)c3Cl)c12 [Example 96, (E)-N-(4-(8-(4-chloro-1,2,6-trimethyl-1H-benzo[d]imidazol-5-yl)-1-((E)-prop-1-en-1-yl)indolizine-3-carbonyl)-2,6-difluorophenyl)-4-(((1r,4r)-4-methoxycyclohexyl)amino)but-2-enamide] | 0.036 µM | 0.13 µM | A (A binding rate of 80% or more is rated “A”)
CCCc1cc(C(=O)c2cc(F)c(NC(=O)/C=C/CN[C@H]3CC[C@H](OC)CC3)c(F)c2)n2cccc(-c3c(C)cc4c(nc(C)n4C)c3Cl)c12 [Example 97, (E)-N-(4-(8-(4-chloro-1,2,6-trimethyl-1H-benzo[d]imidazol-5-yl)-1-propylindolizine-3-carbonyl)-2,6-difluorophenyl)-4-(((1r,4r)-4-methoxycyclohexyl)amino)but-2-enamide] | 0.044 µM | 0.32 µM | A (A binding rate of 80% or more is rated “A”)
Cc1cc2c(nc([C@@H](C)O)n2C)c(Cl)c1-c1cccn2c(C(=O)c3cc(F)c(NC(=O)/C=C/CNC(C)(C)C)c(F)c3)ccc12 [Example 98, (R,E)-4-(tert-butylamino)-N-(4-(8-(4-chloro-2-(1-hydroxyethyl)-1,6-dimethyl-1H-benzo[d]imidazol-5-yl)indolizine-3-carbonyl)-2,6-difluorophenyl)but-2-enamide] | 0.041 µM | 0.042 µM | A (A binding rate of 80% or more is rated “A”)
CCc1nc2c(-c3cc4nc(C)n(C)c4cc3C(F)(F)F)cccn2c1C(=O)c1cc(F)c(NC(=O)/C=C/CN[C@H]2CC[C@H](OC)CC2)c(F)c1 [Example 99, (E)-N-(4-(8-(1,2-dimethyl-6-(trifluoromethyl)-1H-benzo[d]imidazol-5-yl)-2-ethylimidazo[1,2-a]pyridine-3-carbonyl)-2,6-difluorophenyl)-4-(((1r,4r)-4-methoxycyclohexyl)amino)but-2-enamide] | 0.17 µM | 0.17 µM | A (A binding rate of 80% or more is rated “A”)
C#Cc1cc(C(=O)c2cc(F)c(NC(=O)/C=C/CN[C@H]3CC[C@H](OC)CC3)c(F)c2)n2cccc(-c3c(C)cc4c(nc(C)n4C)c3Cl)c12 [Example 100] | 0.071 µM | 0.096 µM | A (A binding rate of 80% or more is rated “A”)
CO[C@H]1CC[C@H](NC/C=C/C(=O)Nc2c(F)cc(C(=O)c3ccc4c(-c5c(C(F)(F)F)cc6c(nc(C)n6C)c5Cl)cccn34)c(F)c2F)CC1 [Example 104, (E)-N-(4-(8(4-chloro-1,2-dimethyl-6-(trifluoromethyl)-1H-benzo[d]imidazol-5-yl)indolizine-3-carbonyl)-2,3,6-trifluorophenyl)-4-(((1r,4r)-4-methoxycyclohexyl)amino)but-2-enamide] | 0.0789 µM | 0.0904 µM | A (A binding rate of 80% or more is rated “A”)
CO[C@H]1CC[C@H](NC/C=C/C(=O)Nc2c(F)cc(C(=O)c3cc(C(=O)N(C)C)c4c(-c5c(C)cc6c(nc(C)n6C)c5Cl)cccn34)cc2F)CC1 [Example 106, 8-(4-chloro-1,2,6-trimethyl-1H-benzo[d]imidazol-5-yl)-3-(3,5-difluoro-4-((E)-4-(((1r,4r)-4-methoxycyclohexyl)amino)but-2-enamido)benzol)-N,N-dimethylindolizine-1-carboxamide] | 0.0311 µM | 0.134 µM | A (A binding rate of 80% or more is rated “A”)

Further molecules by falling IC50 [2], results first:

IC50 [2] | IC50 (MIA PaCa-2 cells) | Structure (SMILES) | binding rate [1]
0.13 µM | 0.28 µM | CO[C@H]1CC[C@H](NC/C=C/C(=O)Nc2c(F)cc(C(=O)c3c(C4CC4)nc4c(-c5cc6nc(C)n(C)c6cc5C(F)(F)F)cccn34)cc2F)CC1 [Example 95, (E)-N-(4-(2-cyclopropyl-8-(1,2-dimethyl-6-(trifluoromethyl)-1H-benzo[d]imidazol-5-yl)imidazo[1,2-a]pyridine-3-carbonyl)-2,6-difluorophenyl)-4-(((1r,4r)-4-methoxycyclohexyl)amino)but-2-enamide] | A (A binding rate of 80% or more is rated “A”)
0.075 µM | 0.1 µM | Cc1nc2cc(-c3cccn4c(C(=O)c5cc(F)c(NC(=O)/C=C/CN[C@@H]6CCOC6)c(F)c5)ccc34)c(C(F)(F)F)cc2n1C [Example 91] | A (A binding rate of 80% or more is rated “A”)
0.054 µM | 0.093 µM | CO[C@H]1CC[C@H](NC/C=C/C(=O)Nc2c(F)cc(C(=O)c3cc(-c4cnn(C)c4)c4c(-c5c(C)cc6c(nc(C)n6C)c5Cl)cccn34)cc2F)CC1 [Example 101, (E)-N-(4-(8-(4-chloro-1,2,6-trimethyl-1H-benzo[d]imidazol-5-yl)-1-(1-methyl-1H-pyrazol-4-yl)indolizine-3-carbonyl)-2,6-difluorophenyl)-4-(((1r,4r)-4-methoxycyclohexyl)amino)but-2-enamide] | A (A binding rate of 80% or more is rated “A”)
0.04 µM | 0.081 µM | COCc1nc2c(Cl)c(-c3cccn4c(C(=O)c5cc(F)c(NC(=O)/C=C/CNC(C)(C)C)c(F)c5)ccc34)c(C)cc2n1C [Example 86, (E)-4-(tert-butylamino)-N-(4-(8-(4-chloro-2-(methoxymethyl)-1,6-dimethyl-1H-benzo[d]imidazol-5-yl)indolizine-3-carbonyl)-2,6-difluorophenyl)but-2-enamide] | A (A binding rate of 80% or more is rated “A”)
0.035 µM | 0.14 µM | CO[C@H]1CC[C@H](NC/C=C/C(=O)Nc2c(F)cc(C(=O)c3cc(C)c4c(-c5c(C)cc6c(nc(C)n6C)c5Cl)cccn34)cc2F)CC1 [Example 87, (E)-N-(4-(8-(4-chloro-1,2,6-trimethyl-1H-benzo[d]imidazol-5-yl)-1-methylindolizine-3-carbonyl)-2,6-difluorophenyl)-4-(((1r,4r)-4-methoxycyclohexyl)amino)but-2-enamide] | A (A binding rate of 80% or more is rated “A”)
0.032 µM | 0.0748 µM | COCc1cc(C(=O)c2cc(F)c(NC(=O)/C=C/CN[C@H]3CC[C@H](OC)CC3)c(F)c2)n2cccc(-c3c(C)cc4c(nc(C)n4C)c3Cl)c12 [Example 103, (E)-N-(4-(8-(4-chloro-1,2,6-trimethyl-1H-benzo[d]imidazol-5-yl)-1-(methoxymethyl)indolizine-3-carbonyl)-2,6-difluorophenyl)-4-(((1r,4r)-4-methoxycyclohexyl)amino)but-2-enamide] | A (A binding rate of 80% or more is rated “A”)
